For seven molecules, TGI results are on record in PubChem BioAssay (NCI).

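Five concentrations, 48 hours, 96-well plates. TGI: total growth inhibition.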

Test systems include NCI-H460 lung; HL-60(TB) leukemia; SNB-19 CNS; SF-268 CNS; K-562 leukemia; TK-10 renal; OVCAR-8 ovarian; SN12C renal; HCT-116 colon; NCI-H226 lung; HS 578T breast; HOP-92 NSCLC; SNB-75 CNS; RXF 393 renal; LOX IMVI melanoma; MALME-3M melanoma; U251 CNS; UO-31 renal.
Holding throughout (assay): NCI anticancer screen, dose series, 48 h

For `CCOC(=O)c1nc2ccccc2nc1Nc1ccc(OC)cc1`, the TGI is greater than 100 µM in the assay with NCI-H460 lung; greater than 100 µM with HL-60(TB) leukemia; 83.9 µM in the assay with SNB-19 CNS; greater than 100 µM in the assay with SF-268 CNS; greater than 100 µM with K-562 leukemia; greater than 100 µM in the assay on TK-10 renal. Moreover, the TGI in the assay with OVCAR-8 ovarian was greater than 100 µM; in the assay on SN12C renal, 61.5 µM; in the assay on HCT-116 colon it was greater than 100 µM; in the assay on NCI-H226 lung, greater than 100 µM; in the assay on HS 578T breast, greater than 100 µM; in the assay on HOP-92 NSCLC it was 54.4 µM. Besides, the TGI in the assay with SNB-75 CNS is 93.2 µM; with RXF 393 renal, 39.7 µM; with LOX IMVI melanoma, greater than 100 µM; with MALME-3M melanoma it was greater than 100 µM; in the assay with U251 CNS, greater than 100 µM; in the assay on UO-31 renal, greater than 100 µM.

`O=c1cc(NNc2ccccc2F)[nH]c(=O)[nH]1`: the TGI with NCI-H460 lung was 2.3 µM; in the assay on HL-60(TB) leukemia, 34.3 µM; in the assay on SNB-19 CNS, greater than 100 µM; in the assay with SF-268 CNS it was 35.2 µM; with K-562 leukemia, 57.6 µM; with TK-10 renal, 27.5 µM. Further, the TGI was determined as 30.6 µM in the assay with HCT-116 colon; 42.8 µM in the assay with NCI-H226 lung; 63.4 µM with HS 578T breast; 29.2 µM with HOP-92 NSCLC; 72.5 µM with SNB-75 CNS; 3.29 µM in the assay with RXF 393 renal. Moreover, the TGI in the assay with LOX IMVI melanoma was 29.7 µM; with MALME-3M melanoma, 33.3 µM; in the assay on U251 CNS, 31.9 µM; in the assay with UO-31 renal, 24.6 µM.

With `CN=C(N)N=Nc1c(O)[nH]c2ccccc12`, the TGI with NCI-H460 lung, with HL-60(TB) leukemia, in the assay with SNB-19 CNS, with SF-268 CNS, in the assay on K-562 leukemia and with TK-10 renal was greater than 100 µM in each case. The TGI with OVCAR-8 ovarian, with SN12C renal, in the assay on HCT-116 colon, in the assay on NCI-H226 lung, in the assay with HS 578T breast and in the assay with HOP-92 NSCLC was greater than 100 µM each time. Further, the TGI in the assay with SNB-75 CNS, in the assay on RXF 393 renal, in the assay on LOX IMVI melanoma, in the assay with MALME-3M melanoma, in the assay with U251 CNS and with UO-31 renal was greater than 100 µM each time.

For the molecule `CCOC(=O)c1sc2c(c1O)c(=O)n(-c1ccccc1)c(=S)n2-c1ccccc1`, the TGI in the assay with NCI-H460 lung, with HL-60(TB) leukemia, in the assay with SNB-19 CNS, with SF-268 CNS, in the assay on K-562 leukemia and in the assay on TK-10 renal was greater than 100 µM in each case. Moreover, the TGI in the assay with OVCAR-8 ovarian, with SN12C renal, in the assay with NCI-H226 lung, with HS 578T breast, in the assay on HOP-92 NSCLC and in the assay on SNB-75 CNS was greater than 100 µM throughout. For the same molecule, the TGI with RXF 393 renal, in the assay on LOX IMVI melanoma, in the assay on MALME-3M melanoma, in the assay with U251 CNS and in the assay with UO-31 renal was greater than 100 µM throughout.

Take `O=C(Cn1c(=O)oc2ccc(C(=O)c3ccc(F)cc3)cc21)c1ccccc1`: the TGI with NCI-H460 lung, in the assay on HL-60(TB) leukemia, with SNB-19 CNS, in the assay on SF-268 CNS, in the assay on K-562 leukemia and with TK-10 renal was greater than 100 µM each time. The TGI with OVCAR-8 ovarian, with SN12C renal, with HCT-116 colon, in the assay with NCI-H226 lung, in the assay with HS 578T breast and in the assay on HOP-92 NSCLC was greater than 100 µM each time. In addition, the TGI with SNB-75 CNS, with RXF 393 renal, in the assay on LOX IMVI melanoma, with MALME-3M melanoma, in the assay on U251 CNS and with UO-31 renal was greater than 100 µM in each case.

Consider `COc1cc(C2c3[nH]c4ccccc4c3[C@@H](Nc3ccc(C#N)cc3)[C@H]3COC(=O)N23)cc(OC)c1O` (stereo partly drawn), for which the TGI in the assay with NCI-H460 lung was 0.342 µM; in the assay with HL-60(TB) leukemia, 0.165 µM; with SNB-19 CNS, greater than 10 µM; in the assay on SF-268 CNS, 0.909 µM; in the assay with K-562 leukemia, greater than 10 µM; in the assay on TK-10 renal, 0.866 µM. Moreover, the TGI in the assay on OVCAR-8 ovarian is 0.933 µM; with SN12C renal, 0.625 µM; with HCT-116 colon, 2.11 µM; in the assay with NCI-H226 lung it was 0.651 µM; in the assay on HS 578T breast it was 2.49 µM; with HOP-92 NSCLC it was greater than 4.61 µM. The TGI worked out at 0.763 µM with SNB-75 CNS; 4.12 µM in the assay on RXF 393 renal; 0.681 µM in the assay with LOX IMVI melanoma; 1.2 µM in the assay with MALME-3M melanoma; 1.32 µM in the assay on U251 CNS; 2.57 µM in the assay with UO-31 renal.

For `CN1N=C(c2ccccc2)C(C(c2ccccc2[N+](=O)[O-])C2C(=O)N(C)N=C2c2ccccc2)C1=O` (stereo not drawn), the TGI in the assay on NCI-H460 lung was greater than 100 µM; with HL-60(TB) leukemia, 52 µM; with SNB-19 CNS, greater than 100 µM; with SF-268 CNS, greater than 100 µM; in the assay on K-562 leukemia, greater than 100 µM; with TK-10 renal, greater than 100 µM. In addition, the TGI with OVCAR-8 ovarian is greater than 100 µM; in the assay on SN12C renal, greater than 100 µM; in the assay with HCT-116 colon, greater than 100 µM; with NCI-H226 lung it was greater than 96.5 µM; in the assay with HS 578T breast it was greater than 100 µM; in the assay with HOP-92 NSCLC, greater than 100 µM. For the same molecule, the TGI with SNB-75 CNS is greater than 100 µM; in the assay on RXF 393 renal it was greater than 100 µM; with LOX IMVI melanoma it was 77.4 µM; with MALME-3M melanoma, greater than 100 µM; with U251 CNS it was greater than 100 µM; with UO-31 renal, greater than 100 µM.
